{"source": "patent US8586548B2", "about": "“NAP alpha-aminoisobutyric acid analog with neuroprotective activity” (Ramot at Tel-Aviv University, Ltd., priority 2009, dated 2013)", "molecules": {"B1": {"name": "recombinant ADNP: recombinant activity-dependent neuroprotective protein (protein, UniProt Q9H2P0 1-1102, looked up)", "Activity-dependent …": "MFQLPVNNLGSLRKARKTVKKILSDIGLEYCKEHIEDFKQFEPNDFYLKNTTWEDVGLWDPSLTKNQDYRTKPFCCSACPFSSKFFSAYKSHFRNVHSEDFENRILLNCPYCTFNADKKTLETHIKIFHAPNASAPSSSLSTFKDKNKNDGLKPKQADSVEQAVYYCKKCTYRDPLYEIVRKHIYREHFQHVAAPYIAKAGEKSLNGAVPLGSNAREESSIHCKRCLFMPKSYEALVQHVIEDHERIGYQVTAMIGHTNVVVPRSKPLMLIAPKPQDKKSMGLPPRIGSLASGNVRSLPSQQMVNRLSIPKPNLNSTGVNMMSSVHLQQNNYGVKSVGQGYSVGQSMRLGLGGNAPVSIPQQSQSVKQLLPSGNGRSYGLGSEQRSQAPARYSLQSANASSLSSGQLKSPSLSQSQASRVLGQSSSKPAAAATGPPPGNTSSTQKWKICTICNELFPENVYSVHFEKEHKAEKVPAVANYIMKIHNFTSKCLYCNRYLPTDTLLNHMLIHGLSCPYCRSTFNDVEKMAAHMRMVHIDEEMGPKTDSTLSFDLTLQQGSHTNIHLLVTTYNLRDAPAESVAYHAQNNPPVPPKPQPKVQEKADIPVKSSPQAAVPYKKDVGKTLCPLCFSILKGPISDALAHHLRERHQVIQTVHPVEKKLTYKCIHCLGVYTSNMTASTITLHLVHCRGVGKTQNGQDKTNAPSRLNQSPSLAPVKRTYEQMEFPLLKKRKLDDDSDSPSFFEEKPEEPVVLALDPKGHEDDSYEARKSFLTKYFNKQPYPTRREIEKLAASLWLWKSDIASHFSNKRKKCVRDCEKYKPGVLLGFNMKELNKVKHEMDFDAEWLFENHDEKDSRVNASKTADKKLNLGKEDDSSSDSFENLEEESNESGSPFDPVFEVEPKISNDNPEEHVLKVIPEDASESEEKLDQKEDGSKYETIHLTEEPTKLMHNASDSEVDQDDVVEWKDGASPSESGPGSQQVSDFEDNTCEMKPGTWSDESSQSEDARSSKPAAKKKATMQGDREQLKWKNSSYGKVEGFWSKDQSQWKNASENDERLSNPQIEWQNSTIDSEDGEQFDNMTDGVAEPMHGSLAGVKLSSQQA"}}, "key": {"[1]": {"target": "VQIVYK (SEQ ID NO:10) peptide derived from tau (Homo sapiens, UniProt P10636)", "experiment": "In vitro tau-like VQIVYK aggregation assay (Thioflavin S)", "assay_type": "biochemical", "experimental": "In the presence of polyglutamic acid (or heparin), VQIVYK (SEQ ID NO:10) aggregates which can be further detected by Thioflavin S (excitation 485 nm and emission 535) with emission intensity greatly increasing.\nFirst, different concentrations of polyglutamic acid (0, 100 μM, 250 μM, and 400 μM) VQIVYK (SEQ ID NO:10) and either […] (NH4Ac) 50 mM pH 6.5 or MOPS 20 mM pH 6.5 and Thioflavin S 5 μM were mixed together and incubated at room temperature. The extent of aggregation was read at excitation 485 nm and emission 535 nm using the infinite 200 system with the Magellan program.\nThe peptides were added at a range of concentrations (10^−17-10^−9 M) and the extent of aggregation of 100 μM VQIVYK (SEQ ID NO:10) was tested in the presence of polyglutamate 250 μM in MOPS 20 μM, pH 6.5 for 7 days.\nIn order to avoid reading self peptide aggregation as VQIVYK aggregation, for each peptide concentration, the fluorescence of the peptide solution without VQIVYK was subtracted from the fluorescence of each peptide concentration containing VQIVYK."}, "[2]": {"test_system": "rat cerebral cortical neurons", "settings": "cited from earlier work"}, "[3]": {"test_system": "beta amyloid peptide (1-42) toxicity", "settings": "cited from earlier work"}, "[4]": {"test_system": "newborn apolipoprotein E deficient mice", "settings": "newborn apolipoprotein E deficient mice subjected to hypoxia; cited from earlier work"}, "[5]": {"test_system": "fibroblast-like cells and neuronal-like cells", "settings": "cited from earlier work"}, "[6]": {"settings": "intranasal administration to rats, dogs or humans; cited from earlier work"}, "[7]": {"settings": "intranasal administration in the rat; cited from earlier work"}, "[8]": {"test_system": "primary hippocampal neurons from presenilin 1 (PSI) mutant knock-in mice", "settings": "pretreatment; cited from earlier work"}, "[9]": {"test_system": "beta amyloid peptide 25-35 neurotoxicity", "settings": "cited from earlier work"}}, "note": "Read-outs that look alike come from different tables or passages of the source."}
{"molecule": "Asn-Ala-Pro-Val-Ser-Ile-Pro-Gln [NAP]", "values": [{"measurement": "inhibition of tau aggregation at 10^−13M", "setting": "[1]; 100 μM VQIVYK, polyglutamate 250 μM, MOPS pH 6.5, 7 days, FIG. 4, p<0.0005 vs. control", "value": "the effect of NAP seems to diminish"}, {"measurement": "prevention of tau aggregation (overall)", "setting": "[1]; peptides at 10^−17-10^−9 M", "value": "effective for preventing tau aggregation"}, {"measurement": "protection against beta amyloid (25-35)", "setting": "[2]; neuronal-enriched cultures", "value": "protected against beta amyloid (25-35)"}, {"measurement": "protection against beta amyloid (25-35) toxicity", "setting": "[2]; neurons seeded on a bed of astrocytes", "value": "protect against beta amyloid (amino acids 25-35) toxicity"}, {"measurement": "protection against beta amyloid peptide (1-42) toxicity", "setting": "[3]", "value": "protection against the toxic beta amyloid peptide (1-42)"}, {"measurement": "neurodevelopment", "setting": "[4]", "value": "enhances neurodevelopment"}, {"measurement": "protection against oxidative stress", "setting": "[5]; fibroblast-like cells", "value": "did not protect fibroblast-like cells"}, {"measurement": "protection against oxidative stress", "setting": "[5]; neuronal-like cells", "value": "did protect neuronal-like cells"}, {"measurement": "plasma levels", "setting": "[6]", "value": "measurable plasma levels"}, {"measurement": "appearance in plasma", "setting": "[7]", "value": "rapid appearance in plasma"}]}
{"molecule": "SALLRSIPA (synthetic activity-dependent neuroprotective protein (ADNP) activity dependent neurotrophic factor 1 (ADNF-1) active core site, ADNF-9)", "values": [{"measurement": "protection of neurons with increased vulnerability to excitotoxicity", "setting": "[8]", "value": "protected by pretreatment with ADNF-9"}]}
{"molecule": "B1", "values": [{"measurement": "neuroprotection in vitro against severe oxidative stress and beta amyloid peptide 25-35", "setting": "[9]", "value": "neuroprotective in vitro"}]}
